Data from publication PMC7173930, “EAT-18 is an essential auxiliary protein interacting with the non-alpha nAChR subunit EAT-2 to form a functional receptor” (PLoS Pathogens, 2020).
Several values for one entry are separate records, joined by “and”; a condition that tells them apart may be missing. Equal values may be shown once. Read-outs that look alike come from different tables or passages of the source.

What was measured:
[1] = biological target: T1, Cel-EAT-2 and Cel-EAT-18c nAChR (Caenorhabditis elegans, UniProt Q9U298); experiment: Two-electrode voltage-clamp of Cel-EAT-2 + Cel-EAT-18c nAChR expressed in Xenopus oocytes; assay type: cell-based; details: for Emax at 100 µM: read-out: current response normalized to the control 100 μM ACh current (Imax); for Hill slope (nH): agonist concentration-response; for EC50: read-out: pEC50 (converted)
T1 sequence (Q9U298 22-474): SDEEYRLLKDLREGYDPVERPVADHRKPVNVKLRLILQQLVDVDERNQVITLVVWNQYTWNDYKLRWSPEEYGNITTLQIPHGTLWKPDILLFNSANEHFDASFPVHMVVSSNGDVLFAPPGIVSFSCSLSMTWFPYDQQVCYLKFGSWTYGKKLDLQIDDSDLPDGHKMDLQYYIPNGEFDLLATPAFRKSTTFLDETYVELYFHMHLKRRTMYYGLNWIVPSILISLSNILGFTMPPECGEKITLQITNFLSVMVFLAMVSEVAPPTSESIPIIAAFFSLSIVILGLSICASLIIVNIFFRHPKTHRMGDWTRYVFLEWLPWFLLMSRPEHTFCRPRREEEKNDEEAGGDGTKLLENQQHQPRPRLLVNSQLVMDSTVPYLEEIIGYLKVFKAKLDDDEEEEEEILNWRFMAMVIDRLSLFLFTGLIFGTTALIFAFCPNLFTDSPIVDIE

[2] = tested on: nAChRs expressed in the pharynx of A. suum; experiment: tissue or blood; assay type: cell-based; details: for Emax: read-out: % change in membrane conductance (δG) normalized to the ACh δG; for mode of antagonism of the pharyngeal ACh response: ACh pEC50 unchanged, maximal response inhibited; for maximal response (δG) of ACh in the presence of antagonist / normalized response (δG) to muscarinic agonists, control ACh = 100%: mean±SE; for normalized response (δG) to muscarinic agonists, control ACh = 100%: 100 μM, 10 s application, n=4; for % change in membrane conductance (δG) normalized to the ACh δG: normalized to 100 μM ACh (10 s), n≥4
Experimental: A. suum pharyngeal dissections and electrophysiology recordings were adapted from Martin [49]. Briefly, pharynx was dissected out from the head region of the worm and mounted on Sylgard (Sigma-Aldrich Inc., USA)—lined in a double jacketed bath chamber maintained at 28°C. The muscle layer surrounding the anterior 3rd of the pharynx was preserved for anchoring. The intestine attached to the posterior end of the pharynx was used for stretching and pinning down. The preparation was continuously perfused with calcium-free Ascaris Perienteric Fluid-Ringer (calcium-free APF-Ringer) composition (mM): NaCl 23, Na-acetate 110, KCl 24, MgCl2 11, glucose 11, and HEPES 5; NaOH or acetic acid was added to adjust the pH to 7.6. […] The rate of localized perfusion was 3.5–4 ml min^−1 through a 20-gauge needle, which was placed directly above the recording region of the pharynx. […] We used 3 M potassium acetate in our micropipettes to get the final resistances of 4–7 MΩ for the voltage sensing and 0.5–1 MΩ for the current injecting electrode for current-clamp recordings. The current-injecting electrode injected hyperpolarizing step currents of −1000 nA for 500 ms at 0.3 Hz.
We constructed the sigmoidal concentration-response plots by fitting the data by nonlinear regression to determine the pEC50 and the maximal response (Rmax). Extra sum of squares F-test was used to test statistical differences between pEC50, slope, and maximal response. The significance levels were set to P<0.05.
In applications containing arecoline and pilocarpine, we used mecamylamine, a nAChR antagonist (30µM) to inhibit nAChRs and to allow only mAChR activation.

Asu-EAT-2 nAChR = Asu-EAT-2 nAChR (Ascaris suum, UniProt F1L9Y6); experiment: cell-based; assay type: cell-based, A. suum
[3] = tested on: A. suum muscarinic receptor; set-up: method as in earlier work; details: all used at 100 µM; ref 1 Kimber M.J. et al. Int J Parasitol 39: 1215-1222 (2009); cited from earlier work
[4] = read-out: current response normalized to the control 100 μM ACh current, mean±SEM, n≥5
[5] = read-out: current response normalized to the control 100 μM ACh current
[6] = in the presence of mecamylamine 30 μM

Asu-EAT-2 nAChR, sequence (F1L9Y6 entry or part of it): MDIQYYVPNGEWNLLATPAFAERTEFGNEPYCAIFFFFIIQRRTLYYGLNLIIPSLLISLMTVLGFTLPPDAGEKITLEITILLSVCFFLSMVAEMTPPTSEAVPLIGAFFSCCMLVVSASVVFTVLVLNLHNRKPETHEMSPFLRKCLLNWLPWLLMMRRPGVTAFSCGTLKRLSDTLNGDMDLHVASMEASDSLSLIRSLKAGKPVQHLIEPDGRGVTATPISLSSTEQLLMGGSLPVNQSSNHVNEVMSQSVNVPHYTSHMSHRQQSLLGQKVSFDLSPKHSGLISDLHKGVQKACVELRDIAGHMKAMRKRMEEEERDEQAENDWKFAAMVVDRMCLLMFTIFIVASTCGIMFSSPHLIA
Asu-EAT-2 nAChR, sequence (F1L1D9 entry or part of it, further chain): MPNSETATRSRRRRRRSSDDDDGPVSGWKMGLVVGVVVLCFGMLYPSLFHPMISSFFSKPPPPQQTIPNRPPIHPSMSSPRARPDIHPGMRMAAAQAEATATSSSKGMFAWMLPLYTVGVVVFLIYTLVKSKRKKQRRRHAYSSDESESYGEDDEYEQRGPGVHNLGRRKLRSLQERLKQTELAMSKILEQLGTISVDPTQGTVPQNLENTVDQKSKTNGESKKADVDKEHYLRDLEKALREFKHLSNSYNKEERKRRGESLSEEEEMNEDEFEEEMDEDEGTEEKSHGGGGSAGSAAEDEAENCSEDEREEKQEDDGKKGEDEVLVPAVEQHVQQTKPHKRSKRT

C#Cc1cncc([C@@H]2CCCN2C)c1 [SIB 1508Y]
Emax at 100 µM ([1]; agonist 100 μM, mean±SEM, n≥6): 0%

CN1[C@@H](CC(=O)c2ccccc2)CCC[C@H]1C[C@H](O)c1ccccc1 [lobeline]
Emax at 100 µM ([1]; agonist 100 μM, mean±SEM, n≥6): 0%

C[N+](C)(CCOc1ccccc1)Cc1cccs1 [thenium]
Emax ([2]; Ascaris suum): 6.1 ± 1.5% | Emax (Asu-EAT-2 nAChR; [4]): 0%

c1ccc([C@H]2CN3CCSC3=N2)cc1 [levamisole]
Emax ([2]; Ascaris suum): 1.8 ± 0.61% | Emax at 100 µM ([1]; agonist 100 μM, mean±SEM, n≥6): 0% | current response normalized to the control 100 μM ACh current (Asu-EAT-2 nAChR): failed to activate the receptor | Emax (Asu-EAT-2 nAChR; [5]): 0%

CCN1C[C@]2(COC(=O)c3ccccc3N3C(=O)C[C@H](C)C3=O)CC[C@H](OC)[C@@]34[C@@H]5C[C@H]6[C@H](OC)[C@@H]5[C@](O)(C[C@@H]6OC)[C@@](O)([C@@H](OC)[C@H]23)[C@@H]14 [methyllycaconitine]
% inhibition of 100 μM ACh membrane conductance (δG) [2]: 62.6±3.7% | mode of antagonism of the pharyngeal ACh response ([2]; antagonist 10 μM): non-competitive antagonists | maximal response (δG) of ACh in the presence of antagonist ([2]; antagonist 10 μM): 57.0±4.6 μS

Cc1ccc(C[N+](C)(C)C)o1 [MFI, 5-methylfurmethiodide]
normalized response (δG) to muscarinic agonists, control ACh = 100% [2]: 4.0±0.6%

COC(=O)C1=CCCN(C)C1 [arecoline]
normalized response (δG) to muscarinic agonists, control ACh = 100% [2, 6]: 2.6±2.0% | response relative to ACh (rank order series of muscarinic agonists) [3]: 76%

CN1CCCN=C1/C=C/c1cccs1 [pyrantel]
Emax ([2]; Ascaris suum): 0% | Emax at 100 µM ([1]; agonist 100 μM, mean±SEM, n≥6): 0% | current response normalized to the control 100 μM ACh current (Asu-EAT-2 nAChR): failed to activate the receptor | Emax (Asu-EAT-2 nAChR; [5]): 0%

CC(=O)OC(C)C[N+](C)(C)C (stereo not drawn) [methacholine]
current response normalized to the control 100 μM ACh current (Imax) ([1]; agonist 100 μM, mean±SEM, n≥6): 73 ± 5.3% | Hill slope (nH) ([1]; mean±SEM): 3.5±1.3 | Emax at 100 µM ([1]; agonist 100 μM, mean±SEM, n≥6): 73 ± 5.3% | EC50 [1]: 79.4 µM

C[N+](C)(C)CCOC(N)=O [carbachol]
Hill slope (nH) ([1]; mean±SEM): 2.1±0.3 | Emax at 100 µM ([1]; agonist 100 μM, mean±SEM, n≥6): 37 ± 3.4% | EC50 [1]: 398 µM | response relative to ACh (rank order series of muscarinic agonists) [3]: 80%

COc1cc2c3cc1Oc1cc(ccc1O)C[C@@H]1c4c(cc(OC)c(O)c4Oc4ccc(cc4)C[C@@H]3N(C)CC2)CC[N+]1(C)C [d-TC, d-tubocurarine]
% inhibition of 100 μM ACh membrane conductance (δG) [2]: 94.6±0.2% | mode of antagonism of the pharyngeal ACh response ([2]; antagonist 10 μM): non-competitive antagonists | maximal response (δG) of ACh in the presence of antagonist ([2]; antagonist 10 μM): 23.0±3.0 μS | inhibition at 30 µM ([1]; read-out: reduction (inhibition) in the mean ACh response, 30 μM d-tubocurarine): ~98%

C[N+](C)(CCOc1ccccc1)Cc1ccccc1 [bephenium]
Emax ([2]; Ascaris suum): 7.2 ± 3.5% | current response normalized to the control 100 μM ACh current (Imax) ([1]; agonist 100 μM, mean±SEM, n≥6): did not activate the receptor | Emax at 100 µM ([1]; agonist 100 μM, mean±SEM, n≥6): 0% | current response normalized to the control 100 μM ACh current (Asu-EAT-2 nAChR; mean±SEM, n≥5): failed to activate the receptor | Emax (Asu-EAT-2 nAChR; [4]): 0.1 ± 0.1%

CC[C@@H]1C(=O)OC[C@@H]1Cc1cncn1C [pilocarpine]
normalized response (δG) to muscarinic agonists, control ACh = 100% [2, 6]: 0.7±0.7% | response relative to ACh (rank order series of muscarinic agonists) [3]: 14%

α-cotinine
current response normalized to the control 100 μM ACh current (Imax) ([1]; agonist 100 μM, mean±SEM, n≥6): 0.0±0.0%

c1cncc([C@@H]2CCCCN2)c1 [anabasine]
Emax at 100 µM ([1]; agonist 100 μM, mean±SEM, n≥6): 0%

C[N+](C)(C)CCO [choline]
Emax ([2]; Ascaris suum): 0% | Emax (Asu-EAT-2 nAChR; [5]): 0%

CN1CCCN=C1/C=C/c1cccc(O)c1 [oxantel]
Emax ([2]; Ascaris suum): 0% | current response normalized to the control 100 μM ACh current (Imax) ([1]; agonist 100 μM, mean±SEM, n≥6): 11 ± 1.3% | Emax at 100 µM ([1]; agonist 100 μM, mean±SEM, n≥6): 11 ± 1.3% | Emax (Asu-EAT-2 nAChR; [4]): 3 ± 1.3%

CNC1(C)C2CCC(C2)C1(C)C (stereo not drawn) [mecamylamine]
% inhibition of 100 μM ACh membrane conductance (δG) [2]: 92% and 92.2±1.9%

O=c1cccc2n1C[C@@H]1CNC[C@H]2C1 [cytisine]
Emax ([2]; Ascaris suum): 71.2 ± 5% | Emax at 100 µM [1]: 0% | Emax (Asu-EAT-2 nAChR; [5]): 81 ± 5.2%

Cc1ccsc1/C=C/C1=NCCCN1C [morantel]
Emax ([2]; Ascaris suum): 0.3 ± 0.3% | current response normalized to the control 100 μM ACh current (Imax) ([1]; agonist 100 μM, mean±SEM, n≥6): did not activate the receptor | Emax (Asu-EAT-2 nAChR; [4]): 0%

Clc1ccc(C2CC3CCC2N3)cn1 (stereo not drawn) [epibatidine]
% change in membrane conductance (δG) normalized to the ACh δG ([2]; mean±SEM): 31.0±3.0% | Emax at 100 µM ([1]; agonist 100 μM, mean±SEM, n≥6): 25 ± 1.5% | Emax (Asu-EAT-2 nAChR; [4]): 77 ± 4.2%

C[N+]1(C)CCN(c2ccccc2)CC1 [DMPP]
Emax ([2]; Ascaris suum): 12 ± 2.9% | current response normalized to the control 100 μM ACh current (Imax) ([1]; agonist 100 μM, mean±SEM, n≥6): failed to respond | Emax at 100 µM ([1]; agonist 100 μM, mean±SEM, n≥6): 0% | Emax (Asu-EAT-2 nAChR; [4]): 6.6 ± 1.9%

C/C(=N/c1ccc(/N=C/c2ccc(/C=N/c3ccc(/N=C(/C)N(C)C)cc3)cc2)cc1)N(C)C [tribendimidine]
% change in membrane conductance (δG) normalized to the ACh δG ([2]; mean±SEM): 0.0±0.0%

CN1C(=O)[C@]23C[C@H]4C(C)(C)[C@]5(CNc6c5ccc5c6OC=CC(C)(C)O5)C[C@@]41CN2CC[C@@]3(C)O [derquantel]
% inhibition of 100 μM ACh membrane conductance (δG) [2]: 30.6±7.0% | Imax of ACh concentration-response in the presence of antagonist ([1]; antagonist 10 μM): 68.4±2.1% | mean % inhibition of ACh (100 μM) mediated currents (Asu-EAT-2 nAChR): 72.0±3.4%

CC(=O)OCC[N+](C)(C)C [ACh, acetylcholine]
Emax ([2]; Ascaris suum): 100% | EC50 ([2]; Ascaris suum, concentration-conductance curve, 1-1000 μM applied for 10 s, mean±SEM, read-out: pEC50 (converted)): 10 µM | maximal response ([2]; agonist concentration-response curve): 105.3 ± 2.5 μS | Hill slope (nH) ([2]; concentration-conductance curve, mean±SEM): 1.8±0.3 | Hill slope (nH) ([1]; mean±SEM): 1.9±0.3 and 1.9 ± 0.2 | times more potent on Asu-EAT-2 nAChR compared to Cel-EAT-2 (Asu-EAT-2 nAChR): ≈ 9 times | Hill slope (nH) (Asu-EAT-2 nAChR; ACh concentration-response, mean±SEM, n=6): 3.5 ± 1.1 | Emax at 100 µM (Asu-EAT-2 nAChR; [4]): 100%

α-bungarotoxin [α-BTX]
Imax of ACh concentration-response in the presence of antagonist [1]: 86.0±2.4% | effect on sensitivity and efficacy of the receptor for ACh [1]: not altered

O=C1CCCN1CC#CCN1CCCC1 [oxotremorine]
normalized response (δG) to muscarinic agonists, control ACh = 100% [2]: 1.8±0.8% | response relative to ACh (rank order series of muscarinic agonists) [3]: 61%

C[N+](C)(C)CCCCCC[N+](C)(C)C [hexamethonium]
% inhibition of 100 μM ACh membrane conductance (δG) [2]: 26.8±1.9%

CC(C[N+](C)(C)C)OC(N)=O (stereo not drawn) [bethanechol]
response relative to ACh (rank order series of muscarinic agonists) [3]: 58%

CO[C@H]1CC=C2CCN3CCC4=C(CC(=O)OC4)[C@]23C1 [DHβE, Dihydro-β-erythroidine]
% inhibition of 100 μM ACh membrane conductance (δG) [2]: 17.9±5.0% | maximal response (δG) of ACh in the presence of antagonist ([2]; DHβE 30 μM): 89.7±3.0 μS | effect on sensitivity and efficacy of the receptor for ACh [1]: not altered | Imax of ACh concentration-response in the presence of antagonist ([1]; antagonist 30 μM): 91.1±4.1% | mean % inhibition of ACh (100 μM) mediated currents (Asu-EAT-2 nAChR): 66±8.4%

c1cncc([C@@H]2CCCN2)c1 [nornicotine]
Emax at 100 µM ([1]; agonist 100 μM, mean±SEM, n≥6): 0%

CN1C(=O)[C@]23C[C@H]4C(C)(C)[C@@]5(C[C@@]41CN2CC[C@@]3(C)O)C(=O)Nc1c5ccc2c1OC=CC(C)(C)O2 [paraherquamide]
% inhibition of 100 μM ACh membrane conductance (δG) [2]: 37.2±8.7% | mode of antagonism of the pharyngeal ACh response ([2]; antagonist 10 μM): non-competitive antagonists | maximal response (δG) of ACh in the presence of antagonist ([2]; antagonist 10 μM): 87.7±5.7 μS | Imax of ACh concentration-response in the presence of antagonist ([1]; antagonist 30 μM): 40.2±2.7%
